This passage reports IC50 results from patent US20090048258A1, “Amide Compound” (priority 2005, published 2009).

pIC50: −log10 of the molar value.

The target in this test is T1, Human DGAT1 (Homo sapiens, UniProt O75907).
T1 construct: my translation of the primer: M-G-DYKDDDD-GDRGSSRRR) (N); made in house; host or cells: Sf9 insect cells (recombinant baculovirus BAC-DGAT1, pFASTBAC1); microsome fraction
T1 sequence (O75907 1-488): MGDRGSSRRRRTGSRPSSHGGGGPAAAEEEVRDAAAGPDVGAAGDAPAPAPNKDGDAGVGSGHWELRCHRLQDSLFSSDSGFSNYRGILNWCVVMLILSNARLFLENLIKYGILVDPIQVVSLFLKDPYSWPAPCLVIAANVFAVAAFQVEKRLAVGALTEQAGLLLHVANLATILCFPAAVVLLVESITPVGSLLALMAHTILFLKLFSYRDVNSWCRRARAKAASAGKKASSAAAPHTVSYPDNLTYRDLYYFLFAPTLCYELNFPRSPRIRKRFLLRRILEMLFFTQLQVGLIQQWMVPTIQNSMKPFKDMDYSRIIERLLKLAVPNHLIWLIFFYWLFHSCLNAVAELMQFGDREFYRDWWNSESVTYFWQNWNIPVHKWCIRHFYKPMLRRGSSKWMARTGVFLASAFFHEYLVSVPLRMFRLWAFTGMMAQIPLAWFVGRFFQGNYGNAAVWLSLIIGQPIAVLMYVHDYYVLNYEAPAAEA
The test is described as follows: DGAT inhibitory activity: [14C]-triglyceride synthesis by DGAT1 high expression Sf9 microsome. The class given is biochemical. Conditions: Table 1, 25 μM dioleoylglycerol, 25 μM [14C]-Oleoyl-CoA, 32° C., 15 min, read-out: DGAT inhibitory activity (according to IC50). How it is done:
The primer base sequence is shown below.
The PCR reaction was conducted using a KOD-plus kit (TOYOBO). The obtained PCR product was electrophoresed on agarose gel (1%), the DNA fragment amplified by PCR was recovered from the gel, and then digested with restriction enzymes EcoRI and SpeI. […] Furthermore, using BAC-TO-BAC Baculovirus Expression System (Invitrogen), recombinant baculovirus BAC-DGAT1 was prepared.
SF9 cells were sown at 1×10^6 cells/ml on Sf-900II SEM medium (1 L, Invitrogen) containing 10% fetal calf serum (Trace), 50 mg/L gentamicin (Invitrogen) and 0.1% Pluronic F-68 (Invitrogen), and shaking culture was performed using a 2 L volume Erlenmeyer at 27° C., 100 rpm. After culturing for 24 hr, recombinant baculovirus BAC-DGAT1 (6.7 mL) was added, and the mixture was further cultured for 3 days. The culture medium was centrifuged at 2,000 rpm for 5 min to give virus-infected cells. The infected cells were washed with a phosphate buffered saline (Invitrogen), centrifuged under the same conditions, and the cells were preserved at −80° C. The cryopreserved cells were thawed in ice, suspended in buffer A (50 mM Tris buffer (30 mL, pH 7.4) containing 20% glycerol, 0.15 M NaCl) supplemented with Complete Protease Inhibitor (Boehringer), and ruptured 3 times with a Polytron homogenizer (Kinematica) at 20,000 rpm for 30 sec. The Sf9 microsome fractions were obtained by a conventional method and cryopreserved at −80° C. as a DGAT1 high expression Sf9 microsome.
As a DGAT1 reaction buffer, a solution having a composition of 100 mM Tris-HCl (pH 7.5), 250 mM sucrose, 150 mM MgCl2, 0.01% bovine serum albumin (BSA) was used. […] A mixture of 300 μL of chloroform:methanol (=1:2) was added to the reaction mixture to quench the reaction. The reaction mixture was sufficiently mixed and saline (200 μL) was added to partition the mixture between a chloroform layer (lower layer) and an aqueous layer (upper layer). The chloroform layer (50 μL) was spotted on a thin layer chromatography silica gel plate (TLC plate, Merck) and developed with a solvent (n-hexane:diethyl ether:ethyl acetate:acetic acid=74:15:15:1). The developed TLC plate was dried, contacted with a BAS imaging plate (manufactured by FUJIFILM) and measured with BAS2500 (manufactured by FUJIFILM) 16 hr later to numerically show the amount of [^14C]-triglyceride (TG amount) produced during the reaction. The inhibitory rate was calculated by the following formula:
Inhibitory rate (%)=(1−(TG amount in the case with addition of test compound−blank TG amount)/(control TG amount−blank TG amount))×100
The count of the triglyceride produced in the solution reacted without addition of the test compound was used as a “control TG amount”, and the count of the triglyceride produced in the solution reacted without addition of the test compound and DGAT1 high expression Sf9 microsome was used as a “blank TG amount”.
Take `CCOC(=O)/C=C/c1cc(C(=O)CCC(=O)Nc2nc(-c3ccccc3)c(Cc3ccccc3)s2)ccc1OCC` [Example 30, ethyl (2E)-3-(5-{4-[(5-benzyl-4-phenyl-1,3-thiazol-2-yl)amino]-4-oxobutanoyl}-2-ethoxyphenyl)acrylate]: the pIC50 is 7.30 to 8.00.
The result for `CCOc1ccc(C(=O)CCC(=O)Nc2nc(-c3ccccc3)c(Cc3ccccc3)s2)cc1/C=C/C(=O)O` [Example 31, (2E)-3-(5-{4-[(5-benzyl-4-phenyl-1,3-thiazol-2-yl)amino]-4-oxobutanoyl}-2-ethoxyphenyl)acrylic acid] reads 6.30 to 7.30; that for `COCOc1ccc(C(=O)CCC(=O)Nc2nc(-c3ccccc3)c(Cc3ccccc3)s2)cc1` [Example 32, N-(5-benzyl-4-phenyl-1,3-thiazol-2-yl)-4-oxo-4-[4-(methoxymethoxy)phenyl]butanamide], 7.30 to 8.00; that for `O=C(CCC(=O)c1ccc(O)cc1)Nc1nc(-c2ccccc2)c(Cc2ccccc2)s1` [Example 33, N-(5-benzyl-4-phenyl-1,3-thiazol-2-yl)-4-(4-hydroxyphenyl)-4-oxobutanamide], 6.30 to 7.30.
As for `CCOC(=O)Cc1ccc(C(=O)CCC(=O)Nc2nc(-c3ccccc3)c(Cc3ccccc3)s2)cc1` [Example 34], the pIC50 was 6.30 to 7.30.
As for `O=C(O)Cc1ccc(C(=O)CCC(=O)Nc2nc(-c3ccccc3)c(Cc3ccccc3)s2)cc1` [Example 35], the figure is 5.00 to 6.30; as for `CCOc1ccc(C(=O)CCC(=O)Nc2nc(-c3ccccc3)c(Cc3ccccc3)s2)cc1Cl` [Example 36, N-(5-benzyl-4-phenyl-1,3-thiazol-2-yl)-4-(3-chloro-4-ethoxyphenyl)-4-oxobutanamide], at least 8.00.
For `CCOC(=O)COc1ccc(C(=O)CCC(=O)Nc2nc(-c3ccccc3)c(Cc3ccccc3)s2)cc1` [Example 37], the pIC50 is 6.30 to 7.30.
The result for `O=C(O)COc1ccc(C(=O)CCC(=O)Nc2nc(-c3ccccc3)c(Cc3ccccc3)s2)cc1` [Example 38] reads 5.00 to 6.30.
The result for `CCOc1ccc(C(=O)CCC(=O)Nc2ccc(CN3CCOCC3)c(-c3ccccc3)c2)cc1OCC` [Example 39, 4-(3,4-diethoxyphenyl)-N-(6-(morpholin-4-ylmethyl)biphenyl-3-yl]-4-oxobutanamide] reads 5.00 to 6.30; that for `CCOc1cc(NC(=O)CCC(=O)c2ccc(OCC)c(OCC)c2)nc(-c2ccccc2)c1` [Example 40, 4-(3,4-diethoxyphenyl)-N-(4-ethoxy-6-phenylpyridin-2-yl)-4-oxobutanamide], 6.30 to 7.30.
As for `CCOc1ccc(C(=O)CCC(=O)Nc2cc(OCCC(C)C)cc(-c3ccccc3)n2)cc1OCC` [Example 41, 4-(3,4-diethoxyphenyl)-N-(4-(3-methylbutoxy)-6-phenylpyridin-2-yl)-4-oxobutanamide], the figure is 6.30 to 7.30.
`CCOc1ccc(C(=O)CCC(=O)Nc2cc(OCc3ccccc3)cc(-c3ccccc3)n2)cc1OCC` [Example 42, 4-(3,4-diethoxyphenyl)-N-(4-(benzyloxy)-6-phenylpyridin-2-yl)-4-oxobutanamide]: the pIC50 is 6.30 to 7.30.
As for `CCOc1ccc(C(=O)CCC(=O)Nc2cc(-c3ccc(F)cc3)cc(-c3ccccc3)n2)cc1OCC` [Example 43, 4-(3,4-diethoxyphenyl)-N-(4-(4-fluorophenyl)-6-phenylpyridin-2-yl)-4-oxobutanamide], the figure is 6.30 to 7.30; as for `CCOc1ccc(C(=O)CCC(=O)Nc2cc(-c3ccccc3)c(Cc3ccccc3)s2)cc1` [Example 44, N-(5-benzyl-4-phenyl-2-thienyl)-4-(4-ethoxyphenyl)-4-oxobutanamide], 6.30 to 7.30.
`CCOc1cccc(C(=O)CCC(=O)Nc2cc(-c3ccccc3)c(Cc3ccccc3)s2)c1` [Example 45, N-(5-benzyl-4-phenyl-2-thienyl)-4-(3-ethoxyphenyl)-4-oxobutanamide]: the negative logarithm of the IC50 (pIC50) is 6.30 to 7.30.
For `CCOc1ccc(C(=O)CCC(=O)Nc2cc(-c3ccccc3)c(CC3CCCCC3)s2)cc1OCC` [Example 46, N-(5-(cyclohexylmethyl)-4-phenyl-2-thienyl)-4-(3,4-diethoxyphenyl)-4-oxobutanamide], the pIC50 is 6.30 to 7.30.
`CCOc1ccc(C(=O)CCC(=O)Nc2cc(-c3ccccc3)c(Cc3ccc(Br)cc3)s2)cc1OCC` [Example 47, N-[5-(4-bromobenzyl)-4-phenyl-2-thienyl]-4-(3,4-diethoxyphenyl)-4-oxobutanamide]: the pIC50 was 7.30 to 8.00.
Turning to `COc1ccc(C(=O)CCC(=O)Nc2cc(-c3ccccc3)c(Cc3ccccc3)s2)cc1OC` [Example 48, N-(5-benzyl-4-phenyl-2-thienyl)-4-(3,4-dimethoxyphenyl)-4-oxobutanamide], the pIC50 was 7.30 to 8.00.
The result for `O=C(CCC(=O)c1ccc2c(c1)CCO2)Nc1cc(-c2ccccc2)c(Cc2ccccc2)s1` [Example 49, N-(5-benzyl-4-phenyl-2-thienyl)-4-(2,3-dihydro-1-benzofuran-5-yl)-4-oxobutanamide] reads 7.30 to 8.00; that for `CCOc1cc(C)c(C(=O)CCC(=O)Nc2cc(-c3ccccc3)c(Cc3ccccc3)s2)cc1OCC` [Example 50, N-(5-benzyl-4-phenyl-2-thienyl) -4-(4,5-diethoxy-2-methylphenyl)-4-oxobutanamide], 7.30 to 8.00.
The result for `CCOC(=O)/C=C/c1ccc(Cc2sc(NC(=O)CCC(=O)c3ccc(OCC)c(OCC)c3)cc2-c2ccccc2)cc1` [Example 51, ethyl (2E)-3-{4-[(5-{[4-(3,4-diethoxyphenyl)-4-oxobutanoyl]amino}-3-phenyl-2-thienyl)methyl]phenyl}acrylate] reads 6.30 to 7.30.
The result for `CCOC(=O)c1sc(NC(=O)CCC(=O)c2ccc(OCC)c(OCC)c2)cc1-c1ccccc1` [Example 52, ethyl 5-{[4-(3,4-diethoxyphenyl)-4-oxobutanoyl]amino}-3-phenylthiophene-2-carboxylate] reads 6.30 to 7.30; that for `COc1ccc(C(=O)CCC(=O)Nc2cc(-c3ccccc3)c(Cc3ccccc3)s2)cc1CCCOC(C)=O` [Example 53, 3-(5-{4-[(5-benzyl-4-phenyl-2-thienyl)amino]-4-oxobutanoyl}-2-methoxyphenyl)propyl acetate], 6.30 to 7.30.
With `COc1ccc(C(=O)CCC(=O)Nc2cc(-c3ccccc3)c(Cc3ccccc3)s2)cc1CCCO` [Example 54, N-(5-benzyl-4-phenyl-2-thienyl)-4-[3-(3-hydroxypropyl)-4-methoxyphenyl]-4-oxobutanamide], the pIC50 was 6.30 to 7.30.
As for `CCc1cc(C(=O)CCC(=O)Nc2cc(-c3ccccc3)c(Cc3ccccc3)s2)ccc1OC` [Example 55, N-(5-benzyl-4-phenyl-2-thienyl)-4-(3-ethyl-4-methoxyphenyl)-4-oxobutanamide], the figure is 6.30 to 7.30; as for `CCOc1ccc(C(=O)CCC(=O)Nc2cc(-c3ccccc3)c(C(=O)OC(C)(C)C)s2)cc1OCC` [Example 56, tert-butyl 5-{[4-(3,4-diethoxyphenyl)-4-oxobutanoyl]amino}-3-phenylthiophene-2-carboxylate], 6.30 to 7.30.
As for `CCOc1ccc(C(=O)C(C)CC(=O)Nc2nc(-c3ccccc3)c(Cc3ccccc3)s2)cc1OCC` (stereo not shown) [Example 57, N-(5-benzyl-4-phenyl-1,3-thiazol-2-yl)-4-(3,4-diethoxyphenyl)-3-methyl-4-oxobutanamide], the figure is at least 8.00.
